Assay results published in patent US20250268894A1, “MACROCYCLE COMPOUNDS FOR THE TREATMENT OF CANCER” (Hoffmann-La Roche Inc., priority 2022, published 2025).

How the values were obtained:
[1] = test system: Miapaca-2 KRAS G12C + S65W cells; assay: Stable KRAS mutant cell line viability assay (CellTiter-Glo), G12C + S65W; format: cell-based; conditions: Homo sapiens, MIA PaCa-2, 72 h, Miapaca-2 mutant cells, 3 d
Source text: (§1) The aim of the study was to determine the potency and efficacy of compounds for cell proliferation using CellTiter-Glo® (CTG) Luminescent Cell Viability Assay (Promega Corp., Madison, WI). We cloned […] KRAS^G12C variant sequences with secondary mutations (V8A, V9Y, S17E, T58I, A59T, S65W, R68S, D69P, M72I, D92R, H95N, Y96D, Q99F, Q99W, Y96H, and F156L) into the Miapaca-2. Totally 14 stable Miapaca-2 mutant cell lines were established through lentivirus infection. For the cell viability assay, cells were dosed with compounds in a 9-point dose-response using a 4 fold dilution series at a top dose of 10 μM. KRAS mutant cells were maintained in DMEM+10% FBS+2.5% HI Horse serum+1% PS+1 μg/mL Puromycin and seeded into 96-well plates at 800-1,500 cells per well 24 h before compound addition and then incubated with compound for 3 d before assaying viability (CellTiter-Glo, Promega). Assays were performed in biological duplicates. Nonlinear regression curves were fitted using Xfit. IC50 (absolute IC50) is the dose at which the estimated viability is 50% relative to untreated wells.

[2] = test system: Miapaca-2 KRAS G12C + D60P cells; assay: Stable KRAS mutant cell line viability assay (CellTiter-Glo), G12C + D60P; format: cell-based; conditions: Homo sapiens, MIA PaCa-2, 72 h, Miapaca-2 mutant cells, 3 d
Source text: as §1

[3] = test system: Miapaca-2 KRAS G12C + Y96D cells; assay: Stable KRAS mutant cell line viability assay (CellTiter-Glo), G12C + Y96D; format: cell-based; conditions: Homo sapiens, MIA PaCa-2, 72 h, Miapaca-2 mutant cells, 3 d
Source text: as §1

[4] = test system: Miapaca-2 KRAS G12C + V8A cells; assay: Stable KRAS mutant cell line viability assay (CellTiter-Glo), G12C + V8A; format: cell-based; conditions: Homo sapiens, MIA PaCa-2, 72 h, Miapaca-2 mutant cells, 3 d
Source text: as §1

[5] = test system: Miapaca-2 KRAS G12C + V9Y cells; assay: Stable KRAS mutant cell line viability assay (CellTiter-Glo), G12C + V9Y; format: cell-based; conditions: Homo sapiens, MIA PaCa-2, 72 h, Miapaca-2 mutant cells, 3 d
Source text: as §1

[6] = biological target: KRAS G12D-BRAF complex (Homo sapiens (Human), UniProt P01116+P62937, G12D); assay: KRAS-BRAF with CYPA (500 nM) interaction assay (TR-FRET), G12D; format: biochemical
KRAS G12D-BRAF complex, sequence (P01116-2 other isoform, or with tags, fused parts or gaps G12D): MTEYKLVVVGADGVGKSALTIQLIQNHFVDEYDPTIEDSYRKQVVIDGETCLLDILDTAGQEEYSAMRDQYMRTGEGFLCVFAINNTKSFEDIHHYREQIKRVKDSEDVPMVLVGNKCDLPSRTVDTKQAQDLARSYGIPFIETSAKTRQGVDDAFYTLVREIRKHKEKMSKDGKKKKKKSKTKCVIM
KRAS G12D-BRAF complex, sequence (P62937 whole entry): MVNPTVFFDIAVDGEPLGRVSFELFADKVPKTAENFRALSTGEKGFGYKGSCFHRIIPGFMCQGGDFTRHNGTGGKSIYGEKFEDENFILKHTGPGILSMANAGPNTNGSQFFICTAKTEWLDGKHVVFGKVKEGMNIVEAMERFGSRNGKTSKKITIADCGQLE
Procedure, shortened: (§2)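 TR-FRET read of compound- or compound-CYPA-driven disruption of BRAF binding by KRAS G12C, G12D or G12V, with CYPA at 500 nM. Compounds tested as 16-point 3-fold dilutions from 10 μM final, incubated 3 hours. Ex320/Em 665/615 nm ratio drop relative to DMSO wells marks disruption.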

[7] = test system: SW620 cells (KRAS G12V); assay: Cell viability assay (Cell Counting Kit-8), KRAS G12V; format: cell-based; conditions: Homo sapiens, SW-620, SW620, 72 hrs
Procedure, shortened: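 Cells seeded overnight at 5,000/well (NCI-H358) or 2,000/well (AGS, SW620), then exposed to compound for 72 hrs at 0.5% DMSO final. CCK-8 read as OD450 minus OD650 after 2 hrs; IC50 from 4-parameter sigmoidal fit.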

[8] = test system: Miapaca-2 KRAS G12C + M72I cells; assay: Stable KRAS mutant cell line viability assay (CellTiter-Glo), G12C + M72I; format: cell-based; conditions: Homo sapiens, MIA PaCa-2, 72 h, Miapaca-2 mutant cells, 3 d
Source text: as §1

[9] = Single dose pharmacokinetics (PK) study in female BALB/c mice; format: in vivo
Protocol: The purpose of this study was to determine the pharmacokinetics of selected compounds following single intravenous bolus or oral gavage administration in female BALB/c mice. Briefly, two groups of female BALB/c mice (available from Shanghai Lingchang Biotechnology Co., Ltd)(N=3/group) were treated with a single dose of compound intravenously at 3 mg/kg (IV) or orally at 30 mg/kg (PO). Blood samples were collected at 5 min (only for IV), […], 30 min, 1 h, 2 h, 4 h, 7 h and 24 h post-dose. Blood samples were placed on ice until centrifugation to obtain plasma samples. The concentration of compound in plasma samples was determined using LC-MS/MS method. The pharmacokinetic parameters were calculated by non-compartmental analysis.

[10] = test system: human hepatocytes; assay: Human hepatocyte stability assay; format: in vitro ADME; conditions: 1 μM compound, human hepatocyte suspension 1×10^6 cells/mL
Protocol: The hepatocyte stability assay measures the rate of disappearance of a compound from incubations with cryopreserved suspension hepatocytes from human. Positive controls, including Midazolam, Raloxifene and Dextromethorphan, are included in every experiment. Incubations consist of 1 μM tested compound and suspension of human hepatocytes (1×10^6 cells/mL) in supplemented Williams' E Medium with 10% FBS and 0.5% Penicillin-streptomycin. The hepatocyte suspension was incubated with intermittent shaking 900 rpm at 37° C., in a 5% CO2 incubator. The reaction was stopped by adding methanol containing internal standard (2 μM Tolbutamide) at 2, 10, 20, 40, 60 and 120 minutes after compound addition, depletion of the parent compound was monitored by LC-MS/MS analysis.

[11] = biological target: KRAS G12C-BRAF complex (Homo sapiens (Human), UniProt P01116+P62937, G12C); assay: KRAS-BRAF with CYPA (500 nM) interaction assay (TR-FRET), G12C; format: biochemical
KRAS G12C-BRAF complex, sequence (P01116-2 other isoform, or with tags, fused parts or gaps G12C): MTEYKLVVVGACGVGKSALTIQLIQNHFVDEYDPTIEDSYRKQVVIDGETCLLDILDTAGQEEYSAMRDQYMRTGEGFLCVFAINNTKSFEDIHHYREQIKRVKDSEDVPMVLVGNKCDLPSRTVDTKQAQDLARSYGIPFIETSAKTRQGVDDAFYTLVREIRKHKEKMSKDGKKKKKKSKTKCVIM
KRAS G12C-BRAF complex, sequence (P62937 whole entry): as the sequence (P62937 whole entry) above
Procedure, shortened: as §2

[12] = test system: Miapaca-2 KRAS G12C + S17E cells; assay: Stable KRAS mutant cell line viability assay (CellTiter-Glo), G12C + S17E; format: cell-based; conditions: Homo sapiens, MIA PaCa-2, 72 h, Miapaca-2 mutant cells, 3 d
Source text: as §1

[13] = mouse, 30 mg/kg, po, female BALB/c mice, plasma

Work on `CO[C@@H](C)c1ncc(N2CCN(CC(F)(F)F)CC2)cc1-c1c2c3cc(ccc3n1CC(F)(F)F)-c1csc(n1)C[C@H](NC(=O)[C@H](C(C)C)N(C)C(=O)N1CCOCC1)C(=O)N1CCC[C@H](N1)C(=O)OCC(C)(C)C2` (atropisomer, axis not shown; (M)) [Example 6] yielded an IC50 [1] of 6 nM, an IC50 [2] of 8 nM and an IC50 [3] of 7 nM. For the same compound, the IC50 [4] was 2 nM, the IC50 [5] was 2 nM and the IC50 [6] was 71 nM. The IC50 [7] was 2 nM, the IC50 [8] was 3 nM and the F ([9]; 30 mg/kg, po, female BALB/c mice) was 29.7%. For the same compound, the “AUC0-last compared with compound A555” value ([9]; 30 mg/kg, po, mouse model) was 15 folds, the “Cmax compared with compound A555” value ([9]; 30 mg/kg, po, mouse model) was about 7 folds and the clearance ([9]; mouse, 3 mg/kg, iv, female BALB/c mice, plasma) was 0.222 L/h/kg. The AUC(0-t) [9, 13] was 36.8 µg·h/mL, the Cmax [9, 13] was 4.89 µg/mL and the “CL_hep (Human)” value [10] was under 0.144 L/h/kg. It also gave an IC50 [11] of 23 nM and an IC50 [12] of 5 nM.
